{"source": "patent US20050059641A1", "about": "“Compositions and methods for treating and preventing cancer using analogs of vitamin D” (Aphios Corporation, priority 2003, published 2005)", "target": "vitamin D receptor, VDR (Homo sapiens, UniProt P11473)", "sequence (P11473 whole entry)": "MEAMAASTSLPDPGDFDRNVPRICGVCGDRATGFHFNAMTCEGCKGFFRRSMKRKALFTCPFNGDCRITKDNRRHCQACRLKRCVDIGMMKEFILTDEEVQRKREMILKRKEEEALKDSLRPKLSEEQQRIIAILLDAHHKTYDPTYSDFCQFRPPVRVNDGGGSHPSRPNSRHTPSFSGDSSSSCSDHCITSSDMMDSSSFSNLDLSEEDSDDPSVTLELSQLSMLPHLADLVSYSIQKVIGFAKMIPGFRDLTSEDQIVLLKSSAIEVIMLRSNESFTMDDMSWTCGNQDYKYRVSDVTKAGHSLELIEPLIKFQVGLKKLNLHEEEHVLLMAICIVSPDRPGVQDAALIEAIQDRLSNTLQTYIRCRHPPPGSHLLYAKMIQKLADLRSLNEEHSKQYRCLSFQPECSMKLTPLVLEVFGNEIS", "assay": "cross-linking (affinity labeling) of the hormone-binding pocket of VDR", "conditions": "FIG. 13", "description": "The present invention is directed, in part, to novel analogs of 1,25(OH)2D3, for example, 1,25(OH)2D3-3-BE and 25(OH)2D3-3-BE. The inventors have developed a novel affinity alkylating analog of 1,25(OH)2D3 which cross links 1,25(OH)2D3 to the hormone-binding pocket of VDR via a nucleophilic displacement reaction between a Cys residue in the hormone-binding pocket (Cys288) and a reactive bromoacetate group at the 3-position of 1,25(OH)2D3 (Ray R, Ray S., and Holick M. F. 1″,25-dihydroxyvitamin D3-3-deoxy-3$-bromoacetate, an affinity labeling analog of 1″,25-dihydroxyvitamin D3. (1994) Bioorg. Chem. 22 276-283; Ray R, Swamy N, MacDonald P N, Ray S, Haussler M R, and Holick M F. (1996) Affinity labeling of 1″,25-dihydroxyvitamin D3 receptor. J. Biol Chem 271 2012-2017; Swamy N, Kounine M, and Ray R. (1997) Identification of the subdomain in the nuclear receptor for the hormonal form of vitamin D3, 1″,25-dihydroxyvitamin D3, vitamin D receptor, that is covalently modified by an affinity labeling reagent. Arch Biochem Biophys 348 91-95; Chen M L, Ray S, Swamy N, Holick M F, and Ray R. Mechanistic studies to evaluate the enhanced anti-proliferation of human keratinocytes by 1α,25-dihydroxyvitamin D3-3-bromoacetate, a covalent modifier of vitamin D receptor, compared to 1α,25-dihydroxyvitamin D3. (1999) Arch. Biochem. Biophys. […]", "note": "“Also recorded” adds a separate entry of the source.", "data": [{"molecule": "C=C1CCC(OC(=O)CBr)CC1=CC=C1CCCC2(C)C1CCC2C(C)CCCC(C)(C)O", "note": "(stereo not shown) [25-OH-D3-3-BE, 25-hydroxyvitamin D3-3-bromoacetate]", "values": [{"measurement": "cross-linking (labeling) of the hormone-binding pocket of VDR", "result": "specifically cross-links to the hormone binding pocket of VDR; also recorded: specifically labels the hormone-binding pocket of VDR"}]}]}
